Measurements taken from patent US6833372B2, “Non-peptide GnRH agents, Pharmaceutical compositions, and methods for their use” (Pfizer, Inc., priority 2002, dated 2004).

Legend:
human GnRH receptors = molecular target: T1, human GnRH receptors (Homo sapiens, UniProt P30968); test: Radioligand binding: inhibition of 125I-GnRH-A binding to human GnRH receptor membranes; details: HEK 293 cell membranes
T1 construct: expressed in transfected cells; host or cells: HEK 293 cells, stably transfected; membranes
T1 sequence (P30968 1-328): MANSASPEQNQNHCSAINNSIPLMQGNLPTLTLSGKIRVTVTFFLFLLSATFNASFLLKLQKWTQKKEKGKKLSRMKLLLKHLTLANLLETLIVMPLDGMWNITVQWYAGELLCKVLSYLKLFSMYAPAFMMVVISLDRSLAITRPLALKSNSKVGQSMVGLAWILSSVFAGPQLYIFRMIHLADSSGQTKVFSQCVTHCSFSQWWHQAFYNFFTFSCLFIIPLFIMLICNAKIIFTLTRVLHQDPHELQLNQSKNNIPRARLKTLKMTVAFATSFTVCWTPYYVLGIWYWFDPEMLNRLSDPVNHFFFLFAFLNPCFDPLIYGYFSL
Description: HEK 293 cells stably transfected with mouse or human GnRH receptors as described above were grown in Dulbecco's high-glucose, modified Eagle's medium (DMEM) supplemented with 0.2% G418, 10% fetal bovine serum (FBS) and 100 U/mL penicillin/streptomycin. GH3 cells stably transfected with the rat GnRH receptor (GGH3) were provided by Dr. William Chin (Harvard Medical School, Boston, Mass.). These cells have been extensively characterized previously (Kaiser et al., 1997). The cells were grown in low glucose DMEM containing: 100U/mL penicillin/streptomycin, 0.6% G418 and 10% heat-inactivated FBS.
(§1) HEK 293 cells containing mouse or human receptors, or rat pituitaries (Pel Freez Biologicals, Rogers, Ark.) were homogenized in buffer A containing: 50 mM Tris (pH 7.4), 0.32 M sucrose, 2 mM EGTA, 1 mM PMSF, 5 μg/ml aprotinen, 5 μg/ml Pepstatin A, and 1 μg/ml leupeptin. Homogenized cells were centrifuged at 4° C. at 20,000×g for 25 minutes, re-suspended in buffer A and re-centrifuged at 4° C. at 20,000×g for an additional 25 minutes. Total membrane protein was determined with a BCA kit (Pierce, Rockford, Ill.). Membranes were stored at −70° C. at a final membrane protein concentration of approximately 5 mg/ml.
(§2) The radioiodinated agonist analog of GnRH, [des-Gly^10,D-Ala^6]GnRH ethylamide (^125I-GnRH-A), was used as the radioligand. […] The reaction mixture was vortexed and incubated for 1 minute at room temperature. After one minute, the mixture was vortexed and allowed to incubate for an additional minute. 2 ml of 0.5 M acetic acid/1% BSA was added to the reaction tube and the mixture was added to a C18 Sep-Pak cartridge. The cartridge was washed with subsequent washes of 5 ml H2O and 5 ml 0.5 M acetic acid and then eluted with 5×1 ml of 60% CH3CN/40% 0.5 M acetic acid. The eluate was diluted with 3× volume of HPLC buffer A (0.1% TFA in H2O) and loaded onto a C18 column. The iodinated product was eluted over 20-25 min with a gradient of 25-100% CH3CN containing 0.1% TFA. The radioactive fractions (750 μl/fraction) were collected into clean polypropylene tubes containing 100 μl of 10% BSA. Fractions were assessed for biological activity by radioligand binding. Specific activity of the radioligand was approximately 2200 Ci/mmol.
(§3) Membranes were diluted to 0.01-0.5 mg/ml (depending upon the species of receptor) with assay buffer containing 50 mM HEPES (pH 7.4), 1 mM EDTA, 2.5 mM MgCl2, and 0.1% BSA. Membranes (diluted to utilize similar receptor numbers between assays) were incubated with approximately 0.04-0.06 nM ^125I-GnRH-A in the presence or absence of competing agents (0.1-10,000 nM) in a total volume of 200 μl in 96-well polypropylene plates for 1 hour at room temperature. Assays were stopped by rapid filtration onto 96-well GF/C filters soaked in 0.1% polyethylenimine (PEI) utilizing a Packard 96-well cell harvester. Filters were washed three times with ice-cold PBS (50 mM NaPO4, 0.9% NaCl, 2 mM MgCl2, and 0.02% NaN3, pH 7.4). 35 μl of scintillation cocktail was added to each filter well and filters were counted on a Packard Topcount. Control dose-response curves were generated to GnRH (0.1 nM-100 nM) in each competition binding experiment. Ki values were calculated from IC50 values according to Cheng et al., Biochemical Pharmacol. 22: 3099-3108, 1973. [formula]

rat GnRH receptor = molecular target: T2, rat GnRH receptor (Rattus norvegicus, UniProt P30969); test: Radioligand binding: inhibition of 125I-GnRH-A binding to rat GnRH receptor (rat pituitary membranes); details: read-out: Ki (nM), Inhibition Binding of 125I-GnRH-A to GnRH Receptors
T2 construct: or rat pituitaries (Pel Freez Biologicals, Rogers, Ark.) were homogenized; tissue Pel Freez Biologicals; host or cells: rat pituitaries (membrane preparation)
T2 sequence (P30969 1-327): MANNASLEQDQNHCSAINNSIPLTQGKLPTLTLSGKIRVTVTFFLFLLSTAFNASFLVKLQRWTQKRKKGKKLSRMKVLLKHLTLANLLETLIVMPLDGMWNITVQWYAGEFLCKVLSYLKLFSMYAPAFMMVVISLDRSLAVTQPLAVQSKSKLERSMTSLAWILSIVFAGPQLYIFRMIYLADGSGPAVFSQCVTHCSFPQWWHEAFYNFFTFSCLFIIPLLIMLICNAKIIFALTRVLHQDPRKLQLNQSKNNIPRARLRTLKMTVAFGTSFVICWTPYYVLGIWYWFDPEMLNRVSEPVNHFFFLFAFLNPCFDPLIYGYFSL
Description: as §1, §2, §3

Ki (human GnRH receptors) [nM]	Ki (rat GnRH receptor) [nM]	Structure (SMILES)
24	19	COc1nc(N[C@@H](CO)CSCc2ccccc2)nc(OC)c1NC(=O)c1ccc(Cc2cc3c(cc2C)C(C)(C)OC3(C)C)o1 [Example D50, N-(2-{[(1S)-2-(Benzylthio)-1-(hydroxymethyl)ethyl]amino}-4,6-dimethoxypyrimidin-5-yl)-5-[(1,1,3,3,6-pentamethyl-1,3-dihydro-2-benzofuran-5-yl)methyl]-2-furamide]
30	14	COc1nc(NCC2(O)CCN(C)CC2)nc(OC)c1NC(=O)c1ccc(Cc2cc3c(cc2C)C(C)(C)OC3(C)C)o1 [Example D56, N-(2-{[(4-Hydroxy-1-methylpiperidin-4-yl)methyl]amino}-4,6-dimethoxypyrimidin-5-yl)-5-[(1,1,3,3,6-pentamethyl-1,3-dihydro-2-benzofuran-5-yl)methyl]-2-furamide Acetate]
19	5.4	CCCCC(CC)COCCCNc1nc(OC)c(NC(=O)c2ccc(Cc3cc4c(cc3C)C(C)(C)OC4(C)C)o2)c(OC)n1 (centres unmarked) [Example D39, N-[2-({3-[(2-Ethylhexyl)oxy]propyl}amino)-4,6-dimethoxypyrimidin-5-yl]-5-[(1,1,3,3,6-pentamethyl-1,3-dihydro-2-benzofuran-5-yl)methyl]-2-furamide]
41	–	CCCCN(CCC#N)c1nc(OC)c(NC(=O)c2ccc(Cc3cc4c(cc3C)C(C)(C)OC4(C)C)o2)c(OC)n1 [Example D37, N-{2-[Butyl(2-cyanoethyl)amino]-4,6-dimethoxypyrimidin-5-yl}-5-[(1,1,3,3,6-pentamethyl-1,3-dihydro-2-benzofuran-5-yl)methyl]-2-furamide]
50	–	COc1nc(NCCCN2CCOCC2)nc(OC)c1NC(=O)c1ccc(Cc2c(C)cc3c(c2C)C(C)(C)CO3)o1 [Example H1, N-{4,6-Dimethoxy-2-[(3-morpholin-4-ylpropyl)amino]-pyrimidin-5-yl}-5-[(3,3,4,6-tetramethyl-2,3-dihydro-1-benzofuran-5-yl)methyl]-2-furamide]
1.8	–	COc1nc(NCCCN2CCN(C)CC2)nc(OC)c1NC(=O)c1ccc(Cc2cc3c(cc2C)C(C)(C)OC3(C)C)o1 [Example D63, N-(4,6-Dimethoxy-2-{[3-(4-methylpiperazin-1-yl)propyl]amino}pyrimidin-5-yl)-5-[(1,1,3,3,6-pentamethyl-1,3-dihydro-2-benzofuran-5-yl)methyl]-2-furamide]
6.7	–	COc1nc(NCCc2ccccn2)nc(OC)c1NC(=O)c1ccc(Cc2cc3c(cc2C)C(C)(C)OC3(C)C)o1 [Example D65, N-{4,6-Dimethoxy-2-[(2-pyridin-2-ylethyl)amino]pyrimidin-5-yl}-5-[(1,1,3,3,6-pentamethyl-1,3-dihydro-2-benzofuran-5-yl)methyl]-2-furamide]
14	–	COc1cc(CNc2nc(OC)c(NC(=O)c3ccc(Cc4cc5c(cc4C)C(C)(C)OC5(C)C)o3)c(OC)n2)cc(OC)c1OC [Example D34, N-{4,6-Dimethoxy-2-[(3,4,5-trimethoxybenzyl)amino]-pyrimidin-5-yl}-5-[(1,1,3,3,6-pentamethyl-1,3-dihydro-2-benzofuran-5-yl)methyl]-2-furamide]
46	–	COc1nc(NC2CCN(Cc3ccccc3)CC2)nc(OC)c1NC(=O)c1ccc(Cc2cc3c(cc2C)C(C)(C)OC3(C)C)o1 [Example D33, N-{2-[(1-Benzylpiperidin-4-yl)amino]-4,6-dimethoxypyrimidin-5-yl}-5-[(1,1,3,3,6-pentamethyl-1,3-dihydro-2-benzofuran-5-yl)methyl]-2-furamide]
460	–	C=C(C)CN(Cc1ccco1)c1nc(OC)c(NC(=O)c2ccc(Cc3cc4c(cc3C)C(C)(C)OC4(C)C)o2)c(OC)n1 [Example D25, N-{2-[(2-Furylmethyl)(2-methylprop-2-enyl)amino]-4,6-dimethoxypyrimidin-5-yl}-5-[(1,1,3,3,6-pentamethyl-1,3-dihydro-2-benzofuran-5-yl)methyl]-2-furamide]
87	–	COc1nc(NCc2ccc(C(F)(F)F)nc2)nc(OC)c1NC(=O)c1ccc(Cc2cc3c(cc2C)C(C)(C)OC3(C)C)o1 [Example D36, N-[4,6-Dimethoxy-2-({[6-(trifluoromethyl)pyridin-3-yl]-methyl}amino)pyrimidin-5-yl]-5-[(1,1,3,3,6-pentamethyl-1,3-dihydro-2-benzofuran-5-yl)methyl]-2-furamide]
47	–	COc1nc(NCCCN2CCN(C)CC2)nc(OC)c1NC(=O)c1ccc(Cc2c(C)cc3c(c2C)C(C)(C)CO3)o1 [Example H2, N-(4,6-Dimethoxy-2-{[3-(4-methylpiperazin-1-yl)propyl]amino}pyrimidin-5-yl)-5-[(3,3,4,6-tetramethyl-2,3-dihydro-1-benzofuran-5-yl)methyl]-2-furamide]
160	–	COc1nc(N2CCN(c3ccccc3F)CC2)nc(OC)c1NC(=O)c1ccc(Cc2cc3c(cc2C)C(C)(C)OC3(C)C)o1 [Example D43, N-{2-[4-(2-Fluorophenyl)piperazin-1-yl]-4,6-dimethoxypyrimidin-5-yl}-5-[(1,1,3,3,6-pentamethyl-1,3-dihydro-2-benzofuran-5-yl)methyl]-2-furamide]
150	–	COc1nc(N2CCN(Cc3ccncc3)CC2)nc(OC)c1NC(=O)c1ccc(Cc2cc3c(cc2C)C(C)(C)OC3(C)C)o1 [Example D54, N-{4,6-Dimethoxy-2-[4-(pyridin-4-ylmethyl)piperazin-1-yl]pyrimidin-5-yl}-5-[(1,1,3,3,6-pentamethyl-1,3-dihydro-2-benzofuran-5-yl)methyl]-2-furamide]
200	–	COc1nc(N(Cc2ccccn2)Cc2ccccn2)nc(OC)c1NC(=O)c1ccc(Cc2cc3c(cc2C)C(C)(C)OC3(C)C)o1 [Example D45, N-{2-[Bis(pyridin-2-ylmethyl)amino]-4,6-dimethoxy-pyrimidin-5-yl}-5-[(1,1,3,3,6-pentamethyl-1,3-dihydro-2-benzofuran-5-yl)methyl]-2-furamide]
240	–	CCc1ccc(CN(CCCO)c2nc(OC)c(NC(=O)c3ccc(Cc4cc5c(cc4C)C(C)(C)OC5(C)C)o3)c(OC)n2)cc1 [Example D48, N-{2-[(4-Ethylbenzyl)(3-hydroxypropyl)amino]-4,6-dimethoxypyrimidin-5-yl}-5-[(1,1,3,3,6-pentamethyl-1,3-dihydro-2-benzofuran-5-yl)methyl]-2-furamide]
202	–	CCOC(=O)CN(Cc1ccccc1)c1nc(OC)c(NC(=O)c2ccc(Cc3cc4c(cc3C)C(C)(C)OC4(C)C)o2)c(OC)n1 [Example D51, Ethyl N-benzyl-N-[4,6-dimethoxy-5-({5-[(1,1,3,3,6-pentamethyl-1,3-dihydro-2-benzofuran-5-yl)methyl]-2-furoyl}amino)pyrimidin-2-yl]glycinate]
